Measurements published in ChEMBL document CHEMBL1149022, “Antitumor agents, 85. Cicutoxin, an antileukemic principle from Cicuta maculata, and the cytotoxicity of the related derivatives” (1986).
Converted amounts (≈) assume the structure as drawn.

These compounds were tested on P388 (assay: Antileukemic activity against mouse P388 cells xenografted in mouse at 1 mg/kg dosed for 3 days relative to control). Settings: not given.
Type: functional
For CCC[C@@H](O)/C=C/C=C/C=C/C#CC#CCCCO [CICUTOXIN], the T/C was 165%.

What follows are compounds tested on P388 (assay: Antileukemic activity against mouse P388 cells xenografted in mouse at 200 mg/kg dosed for 1 day relative to control). Settings: not given.
Type: functional
O=c1[nH]cc(F)c(=O)[nH]1 [FLUOROURACIL] showed a T/C of 135%.

What follows are compounds tested on KB (assay: Cytotoxicity against human KB cells). Settings: read-out: ED50 (the source's name).
Type: functional
In the case of CCCC(=O)/C=C/C=C/C=C/C#CC#CCCCO, the EC50 was > 4 µg/mL.
CCCC(/C=C/C=C/C=C/C#CC#CCCCOCOCCOC)OCOCCOC (centres undefined) was tested, and the EC50 was > 4 µg/mL.
In the case of CCCC(/C=C/C=C/C=C/C#CC#CCCCOC(C)=O)OC(C)=O (centres undefined), the EC50 was > 4 µg/mL.
CCCC(O)CCCCCCCCCCCCCO (centres undefined) was tested, and the EC50 was > 4 µg/mL.
With CCCC(/C=C/C=C/C=C/C#CC#CCCCOCOCc1ccccc1)OCOCc1ccccc1 (centres undefined) the EC50 was > 4 µg/mL.
CCCC(O)/C=C/C=C/C=C/C#CC#CCCCOC(=O)c1ccccc1 (centres undefined) was tested, and the EC50 was > 4 µg/mL.
CCC[C@@H](O)/C=C/C=C/C=C/C#CC#CCCCO [CICUTOXIN] was tested, and the EC50 was 2 µg/mL (≈ 7.74 µM).
